Measurements as given in ChEMBL document CHEMBL1201862, “PubChem BioAssay data set” (2004).
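Test compounds were applied to cells in 96-well plates for 48 hours at 5 doses. Here, GI50 denotes the concentration required for 50% inhibition of growth.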 Active and inactive are the calls of the source. Rule as the data show it: active = GI50 up to about 1.1 µM and inactive = higher.

How the values were obtained:
Test in all cases: NCI anticancer screen, dose series, 48 h
[1] = tested on: CCRF-CEM
[2] = tested on: SK-MEL-2
[3] = tested on: TK-10
[4] = tested on: UACC-257
[5] = tested on: K562
[6] = tested on: OVCAR-4
[7] = tested on: KM12
[8] = tested on: CAKI-1
[9] = tested on: OVCAR-8
[10] = tested on: UO-31
[11] = tested on: MOLT-4
[12] = tested on: DU-145
[13] = tested on: SW-620
[14] = tested on: OVCAR-3
[15] = tested on: MDA-MB-231
[16] = tested on: SK-MEL-28
[17] = tested on: HOP-62
[18] = tested on: T47D
[19] = tested on: U-251
[20] = tested on: SF-295

Measured: GI50

CCc1n[nH]c(=O)n1O
inactive: [1] > 100 µM | [2] > 100 µM | [3] > 100 µM | [4] > 100 µM | [5] > 100 µM | [6] > 100 µM | [7] > 100 µM | [8] > 100 µM | [9] > 100 µM | [10] > 100 µM | [11] > 100 µM | [12] > 100 µM | [13] > 100 µM | [14] > 100 µM | [15] > 100 µM | [16] > 100 µM | [17] > 100 µM | [18] > 100 µM | [19] > 100 µM | [20] > 100 µM

CC(=O)Nc1ccc(S(=O)(=O)c2nnc(NC(C)=O)s2)cc1
inactive: [1] > 100 µM | [2] > 100 µM | [3] > 100 µM | [4] > 100 µM | [5] > 100 µM | [6] > 100 µM | [7] > 100 µM | [8] > 100 µM | [9] > 100 µM | [10] > 100 µM | [11] > 100 µM | [12] > 100 µM | [13] > 100 µM | [14] > 100 µM | [15] > 100 µM | [16] > 100 µM | [17] > 100 µM | [18] > 100 µM | [19] > 100 µM | [20] 25.5 µM

COC(=O)C1=C(C)NC(C)=C(C(=O)OC)C1c1ccc(/[N+]([O-])=C/c2ccccc2)cc1
inactive: [1] 17 µM | [2] > 100 µM | [3] 92.9 µM | [4] 29.6 µM | [5] 23.6 µM | [6] 17.3 µM | [7] > 100 µM | [8] 18.7 µM | [9] 19.7 µM | [10] 37.1 µM | [11] 24.1 µM | [12] > 100 µM | [13] 20 µM | [14] 18.9 µM | [15] 41.1 µM | [16] 18.7 µM | [17] 83.2 µM | [18] 19.8 µM | [19] > 100 µM | [20] 46.9 µM

O=C1C2CC=CCC2C(=O)N1n1c(Cc2ccc(Cl)cc2)n[nH]c1=O (stereo not given)
inactive: [1] > 100 µM | [2] > 100 µM | [3] > 100 µM | [4] > 100 µM | [5] > 100 µM | [6] > 100 µM | [7] > 100 µM | [8] > 100 µM | [9] > 100 µM | [10] > 100 µM | [11] > 100 µM | [12] > 100 µM | [13] > 100 µM | [14] > 100 µM | [15] > 100 µM | [16] > 100 µM | [17] > 100 µM | [18] > 100 µM | [19] > 100 µM | [20] > 100 µM

CC(=O)NCC1OC2COC(c3ccccc3)OC2C(NC(=O)c2ccccc2)C1OC(=O)c1ccccc1 (stereo not given)
inactive: [1] > 100 µM | [2] > 100 µM | [3] > 100 µM | [4] > 100 µM | [5] > 100 µM | [6] > 100 µM | [7] > 100 µM | [8] > 100 µM | [9] > 100 µM | [10] > 100 µM | [11] 86.7 µM | [12] > 100 µM | [13] > 100 µM | [14] > 100 µM | [15] > 100 µM | [16] > 100 µM | [17] > 100 µM | [18] 34.5 µM | [19] > 100 µM | [20] > 100 µM

CCC1(c2ccc(N3C(=O)c4cccc5cc([N+](=O)[O-])cc(c45)C3=O)cc2)CCC(=O)NC1=O (stereo not given)
inactive: [1] 7.74 µM | [2] > 100 µM | [3] 33 µM | [4] 47.6 µM | [5] 17.1 µM | [6] 12.6 µM | [7] > 100 µM | [8] 14.2 µM | [9] 12 µM | [10] 4.44 µM | [11] 11.9 µM | [12] > 44.9 µM | [13] 11.4 µM | [14] 20.7 µM | [15] 5.16 µM | [16] 22.2 µM | [17] 9.12 µM | [18] 24.4 µM | [19] 9.84 µM | [20] 15.9 µM

Nc1ccc(CCSSCCc2ccc(N)cc2)cc1
inactive: [1] 1.38 µM | [2] 20.2 µM | [3] 36.1 µM | [4] 20 µM | [5] 6.4 µM | [6] 28.6 µM | [7] 30.3 µM | [8] 26.4 µM | [9] 28 µM | [10] 22.7 µM | [11] 1.81 µM | [12] 28.3 µM | [13] 30 µM | [14] 31.6 µM | [15] 39.3 µM | [16] 28.3 µM | [17] 55.2 µM | [18] 35.6 µM | [19] 19.6 µM | [20] 39 µM

Cc1ncc(CO)c(/C=N/CCCCCC/N=C/c2c(CO)cnc(C)c2[O-])c1[O-].[Mg+2]
inactive: [1] 36.2 µM | [2] > 100 µM | [3] > 100 µM | [4] > 100 µM | [5] > 100 µM | [6] > 100 µM | [7] > 100 µM | [8] > 100 µM | [9] > 67.9 µM | [10] > 100 µM | [11] > 100 µM | [12] > 100 µM | [13] > 100 µM | [14] > 100 µM | [15] > 100 µM | [16] > 100 µM | [17] > 100 µM | [18] > 100 µM | [19] > 100 µM | [20] > 100 µM

Nc1nc2c(ncn2C2CCC(CO)O2)c(=O)n1C(=O)c1ccccc1 (stereo not given)
inactive: [1] > 100 µM | [2] > 100 µM | [3] > 100 µM | [4] > 100 µM | [5] > 100 µM | [6] > 100 µM | [7] > 100 µM | [8] > 100 µM | [9] > 100 µM | [10] > 100 µM | [11] > 100 µM | [12] > 100 µM | [13] > 100 µM | [14] > 100 µM | [15] > 100 µM | [16] > 100 µM | [17] > 100 µM | [18] > 100 µM | [19] > 100 µM | [20] > 100 µM

COc1ccc2c(c1)OCC1(O)Cc3ccccc3OC21 (stereo not given)
inactive: [1] > 100 µM | [2] > 100 µM | [3] > 100 µM | [4] > 100 µM | [5] > 100 µM | [6] 49.3 µM | [7] > 100 µM | [8] > 100 µM | [9] > 100 µM | [10] > 100 µM | [11] 78.9 µM | [12] > 100 µM | [13] > 100 µM | [14] > 100 µM | [15] > 100 µM | [17] > 100 µM | [18] > 100 µM | [19] > 100 µM | [20] > 100 µM

CC1=NN(C(=O)CC(=O)Nc2ccc(C)cc2)C(=O)C1/N=N/c1ccc(C(=O)O)cc1 (stereo not given)
inactive: [1] > 100 µM | [2] > 100 µM | [3] > 100 µM | [4] > 100 µM | [5] > 100 µM | [6] > 100 µM | [7] > 100 µM | [8] > 100 µM | [9] > 100 µM | [10] 55.8 µM | [12] > 100 µM | [13] > 100 µM | [14] > 100 µM | [15] > 100 µM | [16] > 100 µM | [17] > 100 µM | [18] > 100 µM | [19] > 100 µM | [20] > 100 µM

N#CCN(CC#N)C1CC=CCC1N(CC#N)CC#N (stereo not given)
inactive: [1] > 100 µM | [2] > 100 µM | [3] > 100 µM | [4] > 100 µM | [5] > 100 µM | [6] > 100 µM | [7] > 100 µM | [8] > 100 µM | [9] > 100 µM | [10] > 100 µM | [11] > 100 µM | [12] > 100 µM | [13] > 100 µM | [14] > 100 µM | [15] > 100 µM | [17] > 100 µM | [18] > 100 µM | [19] > 100 µM | [20] > 100 µM

O=c1[nH]cc(/N=C/c2cc(Cl)ccc2O)c(=O)[nH]1
inactive: [1] 2.26 µM | [2] 19.1 µM | [3] > 100 µM | [4] 58.7 µM | [5] 7.26 µM | [6] 2.18 µM | [7] 26.2 µM | [8] 30.3 µM | [9] 4.35 µM | [10] 29.6 µM | [11] 3.88 µM | [12] 21.6 µM | [14] 17.5 µM | [15] 19.6 µM | [16] 13.6 µM | [17] 20.6 µM | [18] 14.8 µM | [19] 8.05 µM | [20] 14.1 µM

CC(C)(NO)/C(=N\O)c1ccccc1
inactive: [1] > 10 µM | [2] > 10 µM | [3] > 10 µM | [4] > 10 µM | [5] > 10 µM | [6] > 10 µM | [7] > 10 µM | [8] > 10 µM | [9] > 10 µM | [10] > 10 µM | [11] > 10 µM | [12] > 10 µM | [13] > 10 µM | [14] > 10 µM | [15] > 10 µM | [17] > 10 µM | [18] > 10 µM | [19] > 10 µM | [20] > 10 µM
